The record followed here is US20190275088A1, “PRESERVATIVE SOLUTION FOR LIVE CELLS OR COMPOSITION CONTAINING LIVE CELLS” (TERUMO KABUSHIKI KAISHA, priority 2016, published 2019).

Assay [1] concerns sheet-shaped human skeletal myoblast cell culture. Kind of assay: Cell survival rate confirmation test, preservative solution based on Hanks' balanced salt solution HBSS (+) (PI staining, flow cytometry). The note with it: 2° C. to 8° C. The method, then:
(§1) The sheet-shaped cell cultures were prepared using skeletal myoblast cells (with fibroblast cells contained therein) prepared from a human skeletal muscle by a usual or known method. A cell mixture of human skeletal myoblast cells and human fibroblast cells suspended in a 20% human serum-containing DMEM/F12 medium (Thermo Fisher Scientific Inc.) was seeded at 3.7×10^6 cells/well on a temperature-responsive culture dish (UpCell® 12 well Multi-well, CellSeed Inc.), and was then subjected to the sheet-formation cultivation at 37° C. under 5% CO2 for 12 to 26 hours. After the sheet-formation cultivation, the medium was removed, 700 μL of HBSS (+) (Thermo Fisher Scientific Inc.) which was chilled to 4° C. was added, and then the resultant was left to stand for 10 minutes. Then, gentle pipetting was conducted such as to detach the sheet-shaped cell culture completely. The thus detached sheet-shaped cell culture naturally shrank.
After the sheet-shaped cell culture was completely detached, HBSS (+) was removed, and a fresh supply of room-temperature HBSS (+) was added to conduct rinsing. […]
The sheet-shaped cell culture left to stand under the refrigerated conditions in (1) above was put to measurement of cell survival rate. […] The analysis was conducted using a flow cytometer (Becton Dickinson), and the proportion of PI-unstained cells contained in the whole cells admixed with PI was measured. […]

Assay [2] has the same test system. Kind of assay: Cell survival rate confirmation test, preservative solution based on physiological saline solution (PI staining, flow cytometry). The note with it: 2° C. to 8° C.; for cell survival rate: three days. The method, then:
as §1, with “completely.” for “completely. The thus detached sheet-shaped cell culture naturally shrank.”
After the sheet-shaped cell culture was completely detached, HBSS (+) was removed, and a fresh supply of room-temperature HBSS (+) was added to conduct rinsing. Such a washing step was repeated four times.
The sheet-shaped cell culture left to stand under the refrigerated conditions in (1) above was put to measurement of cell survival rate. After the sheet-shaped cell culture left to stand in the preservative solution for a predetermined period was dissociated with a trypsin-like protease, the cells were dispensed into a FACS tube to be 3.5×10^5 cells, followed by centrifugation, and the supernatant was discarded. To the resultant was added 3 ml of 0.5% BAS-containing PBS solution, and, after rinsing the cells by vortex, centrifugation was conducted, the supernatant was removed, and 500 μL of a propidium iodide (PI, Becton Dickinson) prepared to a final concentration of 0.6 μg/mL by use of a 0.5% BSA-containing PBS solution was added and mixed. […] The analysis was conducted using a flow cytometer (Becton Dickinson), and the proportion of PI-unstained cells contained in the whole cells admixed with PI was measured. […]

`CC1=NN(c2ccccc2)C(=O)C1` [edaravone, 3-methyl-1-phenyl-2-pyrazolin-5-one]: the “cell survival rate as compared to HBSS (+) not admixed with edaravone” value in assay [1] (100 μM edaravone in HBSS (+), three days to seven days) is “higher cell survival rate”. Moreover, the “lowering in the number of live cells from three days to seven days of preservation, compared to edaravone-nonadded HBSS (+)” value in assay [1] (HBSS (+)-based edaravone-added preservative solution (100 μM)) is listed as “restrained”. Moreover, the “cell survival rate as compared to the case of no addition of edaravone” value in assay [2] (1 μM or 10 μM edaravone in physiological saline solution, five days) was “increased”.
For the compound tocopherol [vitamin E], the cell survival rate result in assay [2] (10 μM vitamin E in physiological saline solution) and in assay [2] (100 μM vitamin E in physiological saline solution) was “approximately 65%” in each case.
